Laboratory results: patent US7067491B2, “Heterocyclic compounds having elastase-inhibiting activity and intermediates thereof” (Dainippon Pharmaceutical Co., Ltd., priority 2002, dated 2006)

Experiments:
[1] = target: T1, human neutrophil elastase (Homo sapiens, UniProt P08246); test: Inhibitory activity on human neutrophil elastase (HNE) in vitro; format: biochemical; conditions: human neutrophil elastase 0.2 U/ml, substrate MeO-Suc-Ala-Ala-Pro-Val-pNA 0.5 mM, 37° C., pH 7.5
T1 construct: purchased Elastine Product Co., Inc
T1 sequence (P08246 30-267): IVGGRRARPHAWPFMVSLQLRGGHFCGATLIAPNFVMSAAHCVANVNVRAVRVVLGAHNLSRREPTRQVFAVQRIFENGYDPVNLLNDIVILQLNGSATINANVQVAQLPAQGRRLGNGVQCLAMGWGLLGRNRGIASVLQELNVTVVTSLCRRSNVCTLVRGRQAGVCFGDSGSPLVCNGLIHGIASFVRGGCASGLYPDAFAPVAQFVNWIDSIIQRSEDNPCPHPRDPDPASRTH
Description: Experiment 1: Inhibitory Activity on Human Neutrophil Elastase (HNE)
The inhibitory activity of the compound of the present invention in vitro on human neutrophil elastase was examined by this experiment.
To 100 mM of HEPES {[N-(2-hydroxyethyl)piperazine-N′-(2-ethanesulfonic acid)], pH 7.5}buffer solution containing 1M NaCl and 0.001% Brij-35 (polyoxyethylene lauryl ether) were added human neutrophil elastase (final concentration: 0.2 U/ml, Elastine Product Co., Inc.) and the compound of the present invention (dissolved in 10% dimethyl sulfoxide; final concentration: 10^−10˜3×10^−3 M). The mixture was pre-incubated for 3 minutes at 37° C. Thereto was added MeO-Suc-Ala-Ala-Pro-Val-pNA (methoxysuccinyl-alanyl-alanyl-prolyl-valyl-p-nitroanilide (Sigma Chemical Co.)) as a substrate to give the final concentration of 0.5 mM, and the reaction was initiated. Under this condition, the producing rate of the reaction product, p-nitroanilide (pNA) at 37° C. was estimated by measuring the absorbance at 404 nm for 3 minutes.
The inhibitory activity of the compound of the present invention against human neutrophil elastase (HNE) is calculated according to the following formula.
The concentration of the compound of the present invention to be required to achieve 50% HNE inhibition (i.e., IC50) was calculated based on the concentration-inhibitory rate curve of the compound of the present invention.
As a comparative compound, N-[(1S)-2-((2S)-2-{N-[(1S)-3,3,3-trifluoro-1-(methylethyl)-2-oxopropyl]carbamoyl}pyrrolidinyl)-1-(methylethyl)-2-oxoethyl](imidazol-4-yl)carboxamide was used, and the same assay was carried out. The planar structure of this compound was the same as one of compound (22) disclosed in J. Med. Chem., 1997, 40, 1876–1885.

[2] = test system: pulmonary hemorrhage induced by human neutrophil elastase (HNE); test: Inhibitory activity on pulmonary hemorrhage induced by human neutrophil elastase (HNE); format: in vivo; conditions: hamster; for Pulmonary hemorrhage inhibitory rate (%): dose 3 mg/kg orally, 30 minutes prior to HNE
Description: Experiment 3: Inhibitory Activity on Pulmonary Hemorrhage Induced by Human Neutrophil Elastase (HNE)
This experiment tested on in vivo efficacy of the compound of the present invention. When human neutrophil elastase is intratracheally administered to a hamster, the pulmonary hemorrhage is induced. A definite time later after administration of the elastase, in the bronchoalveolar lavage fluid by washing lung via trachea, hemoglobin is detected.
Hamsters (Syrian strain, 7–10 weeks old male) were divided into groups consisting of 3 to 6, and each group was treated as follows:
(A) A Group to which the Compound of the Present Invention was not Administered (Disease Control):
Physiological saline solution (0.2 ml) in which 25 unit of human neutrophil elastase (Elastin Product Co., Inc.) was dissolved was intratracheally administered to a hamster to induce the pulmonary hemorrhage. One hour later after administration of elastase, the hamsters were sacrificed by exsanquination, and alveoli were transtracheally washed twice with physiological saline (2.5 ml), and the hemoglobin concentration in the bronchoalveolar lavage fluid (5 ml) was determined by measuring the absorbance at 414 nm.
(B) A Group to which the Compound of the Present Invention was Administered:
A fixed amount of the compound of the present invention was dissolved in dimethyl sulfoxide (DMSO), and thereto was added 0.5% tragacanth gum to prepare a suspension. The suspension was orally administered to a hamster, 30 minutes prior to the administration of human neutrophil elastase (HNE) (final concentration of DMSO, 1%), and then, human neutrophil elastase was administered in the same manner as the above method (A). After 1 hour, the concentration of hemoglobin in the bronchoalveolar lavage fluid was determined in the same manner as the above method (A).
The hemorrhage inhibition activity of the compound of the present invention is represented as the hemorrhage inhibiting rate in the following formula.
The dose of the compound of the present invention to be required to achieve 50% inhibition of pulmonary hemorrhage (i.e., ED50) was calculated based on the administration dose-hemorrhage inhibiting rate curve.
As a comparative example, the same experiment was also carried out on a comparative compound used in Experiment 1.
Some of the compounds of the present invention were compared with the comparative compound on the hemorrhage inhibitory rate at the dose of 3 mg/kg.

| SMILES | IC50 [1] [nM] | Pulmonary hemorrhage inhibitory rate (%) [2] [%] | Inhibitory activity on pulmonary hemorrhage ED50 ([2]; orally administered 30 minutes prior to intratracheal HNE, hemoglobin in bronchoalveolar lavage fluid after 1 hour) [mg/kg] |
| --- | --- | --- | --- |
| CC(C)[C@H](NC(=O)c1cc(C(C)(C)C)no1)C(=O)N1CCC[C@H]1C(=O)N[C@H](C(=O)C(F)(F)F)C(C)C [Example 23, N-[(1S)-2-((2S)-2-{N-[(1S)-3,3,3-trifluoro-1-(methylethyl)-2-oxopropyl]carbamoyl}pyrrolidinyl)-1-(methylethyl)-2-oxoethyl]-(3-tert-butylisoxazol-5-yl)carboxamide] | 15 | – | – |
| Cc1ccc(-n2ncc(C(=O)N[C@H](C(=O)N3CCC[C@H]3C(=O)N[C@H](C(=O)C(F)(F)F)C(C)C)C(C)C)c2C)cc1 [Example 39, N-[(1S)-2-((2S)-2-{N-[(1S)-3,3,3-trifluoro-1-(methylethyl)-2-oxopropyl]carbamoyl}pyrrolidinyl)-1-(methylethyl)-2-oxoethyl]-[5-methyl-1-(4-methylphenyl)pyrazol-4-yl]carboxamide] | 10 | – | – |
| Cc1cc2onc(C(=O)N[C@H](C(=O)N3CCC[C@H]3C(=O)N[C@H](C(=O)C(F)(F)F)C(C)C)C(C)C)c2cc1C [Example 17, N-[(1S)-2-((2S)-2-{N-[(1S)-3,3,3-trifluoro-1-(methylethyl)-2-oxopropyl]carbamoyl}pyrrolidinyl)-1-(methylethyl)-2-oxoethyl]-(5,6-dimethylbenzo[d]isoxazol-3-yl)carboxamide] | 11 | 59 | – |
| CC(C)[C@H](NC(=O)c1c[nH]cn1)C(=O)N1CCC[C@H]1C(=O)N[C@H](C(=O)C(F)(F)F)C(C)C [Comparative compound, N-[(1S)-2-((2S)-2-{N-[(1S)-3,3,3-trifluoro-1-(methylethyl)-2-oxopropyl]carbamoyl}pyrrolidinyl)-1-(methylethyl)-2-oxoethyl](imidazol-4-yl)carboxamide, reference compound] | 78 | 18 | >10 |
| Cc1ccc2onc(C(=O)N[C@H](C(=O)N3CCC[C@H]3C(=O)N[C@H](C(=O)C(F)(F)F)C(C)C)C(C)C)c2c1 [Example 18, N-[(1S)-2-((2S)-2-{N-[(1S)-3,3,3-trifluoro-1-(methylethyl)-2-oxopropyl]carbamoyl}pyrrolidinyl)-1-(methylethyl)-2-oxoethyl]-(5-methylbenzo[d]isoxazol-3-yl)carboxamide] | 12 | – | – |
| Cc1c(C(=O)N[C@H](C(=O)N2CCC[C@H]2C(=O)N[C@H](C(=O)C(F)(F)F)C(C)C)C(C)C)cnn1C(C)(C)C [Example 32, N-[(1S)-2-((2S)-2-{N-[(1S)-3,3,3-trifluoro-1-(methylethyl)-2-oxopropyl]carbamoyl}pyrrolidinyl)-1-(methylethyl)-2-oxoethyl]-(1-tert-butyl-5-methylpyrazol-4-yl)carboxamide] | 8.5 | – | – |
| Cc1c(C(=O)N[C@H](C(=O)N2CCC[C@H]2C(=O)N[C@H](C(=O)C(F)(F)F)C(C)C)C(C)C)cnn1-c1ccc(F)cc1 [Example 37, N-[(1S)-2-((2S)-2-{N-[(1S)-3,3,3-trifluoro-1-(methylethyl)-2-oxopropyl]carbamoyl}pyrrolidinyl)-1-(methylethyl)-2-oxoethyl]-[1-(4-fluorophenyl)-5-methylpyrazol-4-yl]carboxamide] | 9.1 | – | – |
| Cc1nocc1C(=O)N[C@H](C(=O)N1CCC[C@H]1C(=O)N[C@H](C(=O)C(F)(F)F)C(C)C)C(C)C [Example 21, N-[(1S)-2-((2S)-2-{N-[(1S)-3,3,3-trifluoro-1-(methylethyl)-2-oxopropyl]carbamoyl}pyrrolidinyl)-1-(methylethyl)-2-oxoethyl]-(3-methylisoxazol-4-yl)carboxamide] | 11 | – | – |

The remaining molecules from weak to strong by IC50 [1], led by results:

| IC50 [1] [nM] | SMILES | Pulmonary hemorrhage inhibitory rate (%) [2] [%] | Inhibitory activity on pulmonary hemorrhage ED50 ([2]; orally administered 30 minutes prior to intratracheal HNE, hemoglobin in bronchoalveolar lavage fluid after 1 hour) [mg/kg] |
| --- | --- | --- | --- |
| 22 | Cc1nsc(C)c1C(=O)N[C@H](C(=O)N1CCC[C@H]1C(=O)N[C@H](C(=O)C(F)(F)F)C(C)C)C(C)C [Example 5, N-[(1S)-2-((2S)-2-{N-[(1S)-3,3,3-trifluoro-1-(methylethyl)-2-oxopropyl]carbamoyl}pyrrolidinyl)-1-(methylethyl)-2-oxoethyl]-(3,5-dimethylisothiazol-4-yl)carboxamide] | – | – |
| 15 | CC(C)[C@H](NC(=O)c1cc(-c2ccccc2)no1)C(=O)N1CCC[C@H]1C(=O)N[C@H](C(=O)C(F)(F)F)C(C)C [Example 24, N-[(1S)-2-((2S)-2-{N-[(1S)-3,3,3-trifluoro-1-(methylethyl)-2-oxopropyl]carbamoyl}pyrrolidinyl)-1-(methylethyl)-2-oxoethyl]-(3-phenylisoxazol-5-yl)carboxamide] | – | – |
| 12 | CC(C)[C@H](NC(=O)c1ccc2snnc2c1)C(=O)N1CCC[C@H]1C(=O)N[C@H](C(=O)C(F)(F)F)C(C)C [Example 14, N-[(1S)-2-((2S)-2-{N-[(1S)-3,3,3-trifluoro-1-(methylethyl)-2-oxopropyl]carbamoyl}pyrrolidinyl)-1-(methylethyl)-2-oxoethyl](benzo[d]1,2,3-thiadiazol-5-yl)carboxamide] | – | – |
| 12 | CC(C)[C@H](NC(=O)c1cnn(-c2ccccc2)c1)C(=O)N1CCC[C@H]1C(=O)N[C@H](C(=O)C(F)(F)F)C(C)C [Example 33, N-[(1S)-2-((2S)-2-{N-[(1S)-3,3,3-trifluoro-1-(methylethyl)-2-oxopropyl]carbamoyl}pyrrolidinyl)-1-(methylethyl)-2-oxoethyl]-(1-phenylpyrazol-4-yl)carboxamide] | – | – |
| 9.8 | Cc1nn(-c2ccccc2)c(C)c1C(=O)N[C@H](C(=O)N1CCC[C@H]1C(=O)N[C@H](C(=O)C(F)(F)F)C(C)C)C(C)C [Example 34, N-[(1S)-2-((2S)-2-{N-[(1S)-3,3,3-trifluoro-1-(methylethyl)-2-oxopropyl]carbamoyl}pyrrolidinyl)-1-(methylethyl)-2-oxoethyl]-(3,5-dimethyl-1-phenylpyrazol-4-yl)carboxamide] | – | – |
| 9.2 | CC(C)[C@H](NC(=O)c1cc(-c2ccccc2)on1)C(=O)N1CCC[C@H]1C(=O)N[C@H](C(=O)C(F)(F)F)C(C)C [Example 9, N-[(1S)-2-((2S)-2-(N-[(1S)-3,3,3-trifluoro-1-(methylethyl)-2-oxopropyl]carbamoyl}pyrrolidinyl)-1-(methylethyl)-2-oxoethyl]-(5-phenylisoxazol-3-yl)carboxamide] | – | – |
| 8.4 | Cc1c(C(=O)N[C@H](C(=O)N2CCC[C@H]2C(=O)N[C@H](C(=O)C(F)(F)F)C(C)C)C(C)C)cnn1-c1ccccc1F [Example 45] | 58 | – |
| 8.1 | Cc1c(C(=O)N[C@H](C(=O)N2CCC[C@H]2C(=O)N[C@H](C(=O)C(F)(F)F)C(C)C)C(C)C)cnn1-c1cccc(F)c1 [Example 46, N-[(1S)-2-((2S)-2-{N-[(1S)-3,3,3-trifluoro-1-(methylethyl)-2-oxopropyl]carbamoyl}pyrrolidinyl)-1-(methylethyl)-2-oxoethyl]-[1-(3-fluorophenyl)-5-methylpyrazol-4-yl]carboxamide] | – | – |
| 6.3 | CC(C)[C@H](NC(=O)c1ccc2c(c1)nnn2C(C)C)C(=O)N1CCC[C@H]1C(=O)N[C@H](C(=O)C(F)(F)F)C(C)C [Example 13, N-[(1S)-2-((2S)-2-{N-[(1S)-3,3,3-trifluoro-1-(methylethyl)-2-oxopropyl]carbamoyl}pyrrolidinyl)-1-(methylethyl)-2-oxoethyl]-[1-(methylethyl)benzotriazol-5-yl]carboxamide] | – | – |
